Results from patent US20030125234A1, “Alteration of protein stability” (priority 2001, published 2003).

Columns and labels:
Format in all cases: biochemical
[1] = target: T1, yeast alcohol dehydrogenase (ADH) (Saccharomyces cerevisiae, UniProt P00330); assay: ADH oxidation-induced aggregation (turbidity at 360 nm), Cu(OP)2; settings: for inhibition index: ADH 1 mg/mL, 37° C., Cu(OP)2
T1 construct: purchased Sigma
T1 sequence (P00330 2-348 limits assumed): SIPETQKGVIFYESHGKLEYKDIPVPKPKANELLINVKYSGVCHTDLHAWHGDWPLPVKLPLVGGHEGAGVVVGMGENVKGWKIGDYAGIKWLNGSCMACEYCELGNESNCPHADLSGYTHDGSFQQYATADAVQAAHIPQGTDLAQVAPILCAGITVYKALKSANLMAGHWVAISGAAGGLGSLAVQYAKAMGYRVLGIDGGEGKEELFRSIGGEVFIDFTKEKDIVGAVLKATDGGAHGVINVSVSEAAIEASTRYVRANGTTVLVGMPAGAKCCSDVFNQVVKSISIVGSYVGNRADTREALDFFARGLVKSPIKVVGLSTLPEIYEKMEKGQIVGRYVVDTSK
Protocol: (§1) Bovine insulin [Sigma, St. Louis, Mo., USA] was dissolved in phosphate saline (PBS) (50 mM sodium biphosphate, 100 mM sodium chloride), pH 7.0, bovine alpha-lactalbumin [Sigma] in 50 mM sodium phosphate, 100 mM sodium chloride and 2 mM EDTA, pH 6.2, chicken egg white lysozyme [Sigma] in 100 mM Tris, 1 mM EDTA, pH 8.2, human acidic fibroblast growth factor (FGF-1) in 6.2 mM sodium biphosphate, 120 mM sodium chloride, pH 7.2, porcine somatotropin (pST) [provided by Pfizer, Inc., Groton, Conn., USA] in 10 mM phosphate, pH 6. 1, human apolactoferrin (HLF) [Sigma] in 20 mM HEPES, 154 mM NaCl, pH 7.4, porcine heart citrate synthase (CS) in 40 mM HEPES, 50 mM KCl, 10 mM (NH4)2SO4 mM potassium acetate, pH 7.8, and yeast alcohol dehydrogenase (ADH) [Sigma] in pH 7.0 PBS. Selection of buffer solutions was based on an extensive series of preliminary studies to obtain appropriate insolubilization kinetics as described below.
(§2) Copper O-phenanthroline (1,10-phenanthroline) was prepared by mixing copper sulfate hexahydrate [Fisher] and o-phenanthroline [Sigma] in a 1:2 ratio. 1 M Dithiothreitol (DTT) was prepared at pH 7.0 PBS. Polyethylene glycol (M.W. 8000, Union Carbide, Danbury, Conn., USA) (PEG) was prepared at 20 mg/mL in 10 mM phosphate, pH 6.1.
(§3) The following compounds were obtained from Sigma and used without further purification: oxalic acid, sodium malonate, succinic acid, glutaric acid, adipic acid, pimelic acid, suberic acid, azelaic acid, guanidine hydrochloride, ammonium formate, beta-alanine, 4-aminobutyric acid, 5-aminovaleric acid, 6-aminocaproic acid, 7-aminoheptanoic acid, hydrazine, ethylenediamine, 1,3-diaminopropane, 1,4-diaminobutane, 1,5-diaminopentane, 1,6-diaminohexane, 1,7-diaminoheptane, Glu-Glu, Glu-Lys, Lys-Lys, diglycine, triglycine, tetraglycine, pentaglycine, and hexaglycine. […] Triglycine and tetraglycine were dissolved in pH 8.6 PBS, while pentaglycine and hexaglycine were dissolved in pH 10.6 PBS.
(§4) Each was either dissolved in pH 7.0 PBS, or pH 6.1 10 mM phosphate, and adjusted to the same pH.
(§5) Protein aggregation was monitored for 1 hour at 360 nm using an HP8453 UV-visible spectrophotometer system [Hewlett Packard, Germany]. […] Insulin (0.25 mg/mL (4.39E-5 M)) aggregation was monitored at 25° C. after addition of potential inhibitors and 20 μL of 1 M DTT (1.27E-4 M). Alpha-lactabumin (0.4 mg/mL (2.82E-5 M)) aggregation was monitored at 37° C. in the presence of 20 μL of 1 M DTT (1.27E-4 M). Lysozyme (0.4 mg/mL (2.86E-5 M)) aggregation was monitored at 25° C. in the presence of 20 μL of 1 M DTT (1.27E-4 M). FGF-1 (50 μg/mL (3.12E-6 M)) aggregation was monitored at 50° C. Porcine somatotropin (1.27 mg/mL (5.76E-5 M)) aggregation was monitored at 60° C. in the presence of PEG 8000 (20 mg/mL) which was included to enhance the protein association process through a simple exclusion volume effect. HLF (0.4 mg/mL (5.23E-6 M)) aggregation was monitored at 43° C. in the presence of 1.27E-4 M DTT. Citrate synthase (96 μg/mL (9.80E-7 M)) aggregation was monitored at45° C. ADH (1 mg/mL (7.14E-6 M)) was monitored at 37° C. following the addition of 7.76E-5 M Cu(OP)2. Aggregation was compared to protein in the absence of the particular dipolar compound. After stirring, experiments were initiated by the addition of proteins followed by stressing reagents to 1 cm pathlength cuvettes employing a seven-position thermostatted sample holder that was cycled at 30-second intervals. Alternatively, a microtiter plate reader was employed under the same conditions in a 96 well format.
(§6) All optical density (OD)360nm versus time results were exported into Excel [Microsoft] for data analysis.

Bovine insulin = target: T2, Bovine insulin (Bos taurus, UniProt P01317); assay: Insulin aggregation (turbidity at 360 nm) induced by DTT; settings: Insulin 0.25 mg/mL, 25° C., DTT; compound 100×; standard deviation in parenthesis
T2 construct: purchased Sigma, St. Louis, Mo., USA
T2 sequence (P01317 25-54 limits assumed): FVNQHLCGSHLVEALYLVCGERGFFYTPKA
T2 sequence (P01317 85-105 limits assumed): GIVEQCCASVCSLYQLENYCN
Protocol: as §1, §2, §3, §4, §5, §6

bovine alpha-lactalbumin = target: T3, bovine alpha-lactalbumin (Bos taurus, UniProt P00711); assay: Alpha-lactalbumin aggregation (turbidity at 360 nm) induced by DTT; settings: for inhibition index: α Lactalbumin 0.4 mg/mL, 37° C., DTT, compound 1,000×, standard deviation in parenthesis
T3 construct: purchased Sigma
T3 sequence (P00711 20-142): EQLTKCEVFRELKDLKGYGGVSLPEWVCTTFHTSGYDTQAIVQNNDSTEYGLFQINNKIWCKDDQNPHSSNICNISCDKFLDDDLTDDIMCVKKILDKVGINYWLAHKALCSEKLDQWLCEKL
Protocol: as §1, §2, §3, §4, §5, §6

[2] = target: T4, human apolactoferrin (HLF) (Homo sapiens, UniProt P02788); assay: HLF aggregation (turbidity at 360 nm) induced by DTT; settings: HLF 0.4 mg/mL, 43° C., DTT, head 10,000×, standard deviation in parenthesis
T4 construct: purchased Sigma
T4 sequence (P02788 20-710): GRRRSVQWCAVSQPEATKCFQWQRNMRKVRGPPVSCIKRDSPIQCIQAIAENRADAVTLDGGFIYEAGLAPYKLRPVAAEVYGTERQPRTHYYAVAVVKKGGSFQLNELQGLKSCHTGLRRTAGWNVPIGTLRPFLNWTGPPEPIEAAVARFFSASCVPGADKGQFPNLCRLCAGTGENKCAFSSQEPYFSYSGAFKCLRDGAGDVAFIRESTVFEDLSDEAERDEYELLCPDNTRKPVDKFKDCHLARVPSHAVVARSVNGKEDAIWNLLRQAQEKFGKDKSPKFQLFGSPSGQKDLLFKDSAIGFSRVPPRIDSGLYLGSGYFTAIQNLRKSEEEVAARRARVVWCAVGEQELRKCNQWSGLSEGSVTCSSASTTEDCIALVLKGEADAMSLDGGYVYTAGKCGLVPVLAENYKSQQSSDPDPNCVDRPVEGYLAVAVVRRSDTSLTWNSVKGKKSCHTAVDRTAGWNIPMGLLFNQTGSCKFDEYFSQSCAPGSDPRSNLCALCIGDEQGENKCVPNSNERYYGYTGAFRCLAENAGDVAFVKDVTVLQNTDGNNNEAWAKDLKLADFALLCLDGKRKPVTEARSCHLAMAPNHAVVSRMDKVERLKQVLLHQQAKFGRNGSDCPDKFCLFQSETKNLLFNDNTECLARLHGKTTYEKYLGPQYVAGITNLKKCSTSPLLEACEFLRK
Protocol: as §1, §2, §3, §4, §5, §6

[3] = target: T5, porcine heart citrate synthase (CS) (Sus scrofa, UniProt P00889); assay: Citrate synthase thermal aggregation (turbidity at 360 nm); settings: for inhibition index: CS 96 μg/mL, 45° C., standard deviation in parenthesis
T5 construct: porcine heart citrate synthase (CS); from tissue; host or cells: porcine heart
T5 sequence (P00889 28-464): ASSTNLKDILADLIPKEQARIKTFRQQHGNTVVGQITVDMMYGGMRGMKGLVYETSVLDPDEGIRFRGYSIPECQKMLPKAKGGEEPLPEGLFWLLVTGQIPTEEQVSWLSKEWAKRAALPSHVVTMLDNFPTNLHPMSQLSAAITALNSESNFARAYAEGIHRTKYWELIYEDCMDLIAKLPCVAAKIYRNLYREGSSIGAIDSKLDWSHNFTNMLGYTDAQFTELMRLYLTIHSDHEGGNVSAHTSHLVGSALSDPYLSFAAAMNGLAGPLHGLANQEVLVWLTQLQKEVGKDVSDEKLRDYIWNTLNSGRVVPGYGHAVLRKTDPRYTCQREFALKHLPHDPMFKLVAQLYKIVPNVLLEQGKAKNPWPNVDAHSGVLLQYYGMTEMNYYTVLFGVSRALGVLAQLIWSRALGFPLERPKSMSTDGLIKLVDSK
Protocol: as §1, §3, §4, §5
(§7) All optical density (OD)360nm versus time results were exported into Excel [Microsoft] for data analysis. […] The maximum rate of change in OD versus time plots (r) was used to determine the rate of the reaction from the slope at this point.

[4] = target: human acidic fibroblast growth factor (FGF-1) (Homo sapiens, UniProt P05230); assay: FGF-1 thermal aggregation (turbidity at 360 nm); settings: FGF-1 50 μg/mL, 50° C., standard deviation in parenthesis
Chain of human acidic fibroblast growth factor (FGF-1) (P05230 whole entry): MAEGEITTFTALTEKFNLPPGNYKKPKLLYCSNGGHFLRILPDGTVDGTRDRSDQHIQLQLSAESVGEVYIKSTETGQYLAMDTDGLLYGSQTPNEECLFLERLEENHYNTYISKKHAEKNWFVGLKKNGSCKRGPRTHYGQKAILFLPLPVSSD
Protocol: as §1, §3, §4, §5, §7

[5] = target: T6, chicken egg white lysozyme (Gallus gallus, UniProt P00698); assay: Lysozyme aggregation (turbidity at 360 nm) induced by DTT; settings: Lysozyme 0.4 mg/mL, 25° C., DTT; compound 1,000×; standard deviation in parenthesis
T6 construct: chicken egg white lysozyme [Sigma]; purchased Sigma; host or cells: egg white
T6 sequence (P00698 19-147): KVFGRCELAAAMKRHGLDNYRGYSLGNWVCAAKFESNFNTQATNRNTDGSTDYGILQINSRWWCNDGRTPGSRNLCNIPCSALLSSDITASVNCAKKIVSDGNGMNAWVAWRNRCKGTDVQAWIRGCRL
Protocol: as §1, §2, §3, §4, §5, §6

[6] = target: T7, porcine somatotropin (pST) (Sus scrofa, UniProt P01248); assay: Porcine somatotropin aggregation (turbidity at 360 nm) with PEG 8000; settings: pST 1.27 mg/mL, 60° C., standard deviation in parenthesis
T7 construct: purchased Pfizer, Inc., Groton, Conn., USA (provided, not bought)
T7 sequence (P01248 27-216): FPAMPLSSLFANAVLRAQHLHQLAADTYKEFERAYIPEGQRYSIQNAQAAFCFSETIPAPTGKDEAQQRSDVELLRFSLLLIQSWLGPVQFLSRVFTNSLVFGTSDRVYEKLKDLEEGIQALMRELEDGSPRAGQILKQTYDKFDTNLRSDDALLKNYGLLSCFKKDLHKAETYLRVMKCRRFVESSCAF
Protocol: as §1, §2, §3, §4, §5, §6

[7] = compound 1,000X, standard deviation in parenthesis
[8] = compound 10,000X molar excess, Infinite = complete inhibition of aggregation over one hour

Row | Compound | inhibition index [1, 7] | inhibition index [1, 8] | inhibition index (Bovine insulin) | inhibition index (bovine alpha-lactalbumin) | inhibition index ([2]; first HLF column) | inhibition index ([2]; second HLF column) | inhibition of citrate synthase aggregation, in words [3] | inhibition index ([3]; compound 1,000X) | inhibition index ([3]; compound 10,000X) | inhibition index ([3]; compound 50,000X) | inhibition index ([4]; compound 1,000×) | inhibition index ([4]; compound 10,000×) | inhibition index [5] | inhibition of α-lactalbumin aggregation, in words (bovine alpha-lactalbumin) | inhibition index ([6]; compound 100X) | inhibition index ([6]; compound 2,000X) | inhibition of ADH aggregation, in words ([1]; FIG. 1)
1 | Glu-Lys | 1.7 (0.1) | 18.4 | 1.0 (0.1) | 1.0 (0.1) | 9.8 (0.3) | 44.5 | Potent inhibitors | 0.8 (0.2) | 1.6 (0.2) | 21.5 | 1.6 (0.3) | 11.0 (3.0) | 1.0 (0.4) |  |  |  | 
2 | CH3—NH2-(Glu)^−-(Gly)n-(Glu)^−-COO^− [CH3—NH2—(E)^−—(G)5—(E)^−—COO^−] | 1.2 (0.1) |  | 1.3 (0.1) |  | 1.6 (0.1) |  |  | 0.6 (0.1) |  |  | 12.3 (0.4) |  | 0.1 (0.1) |  |  |  | 
3 | N.O=CO [ammonium formate] |  | 1.2 (0.1) | 1.2 (0.5) | 0.8 (0.3) |  | 5.8 (1.1) |  |  | 0.6 (0.0) | 1.2 (0.3) | 0.9 (0.1) | 1.3 (0.3) | 1.5 (0.3) |  |  |  | 
4 | ^+NH3-(Lys)^+-(Gly)n-(Lys)^+-CONH2 [^+NH3—(K)^+—(G)3—(K)^+—CONH2] | 1.2 (0.1) |  | 0.9 (0.3) | 0.8 (0.1) | 2.1 (0.1) |  |  | 0.6 (0.1) |  |  | 1.5 (0.4) |  | 1.2 (0.7) |  |  |  | 
5 | ^+NH3-(Lys)^+-(Gly)n-(Lys)^+-CONH2 [^+NH3—(K)^+—(G)5—(K)^+—CONH2] | 1.5 (0.2) |  | 1.7 (1.0) | 2.6 (1.1) | 1.5 (0.3) |  |  | 0.8 (0.1) |  |  | 3.3 (0.8) |  | 0.8 (0.4) | Potent inhibitors |  |  | 
6 | O=C(O)CCCCCCCC(=O)O [azelaate, azelaic acid] |  |  | 1.5 (0.4) | 2.3 (0.6) |  | 1455.0 |  |  | 0.7 (0.6) | 4.4 (1.8) | 1.9 (0.2) | 6.1 (2.6) | 1.0 (0.2) |  | 0.6 (0.0) | 1.3 (0.3) | 
7 | ^+NH3-(Lys)^+-(Gly)n-(Lys)^+-CONH2 [^+NH3—(K)^+—(G)1—(K)^+—CONH2] | 1.2 (0.1) |  | 0.9 (0.1) | 0.5 (0.2) | 1.5 (0.2) |  |  | 1.0 (0.3) |  |  | 2.3 (0.4) |  | 0.9 (0.2) |  |  |  | 
8 | CH3—NH2-(Glu)^−-(Gly)n-(Glu)^−-COO^− [CH3—NH2—(E)^−—(G)4—(E)^−—COO^−] | 1.4 (0.1) |  | 1.4 (0.6) | 0.7 (0.4) | 1.7 (0.3) |  |  | 0.7 (0.1) |  |  | 1.6 (0.2) |  | 0.9 (0.3) |  |  |  | 
9 | CH3—NH2-(Glu)^−-(Gly)n-(Glu)^−-COO^− [CH3—NH2—(E)^−—(G)2—(E)^−—COO^−] | 1.1 (0.1) |  | 1.0 (0.2) | 0.4 (0.2) | 1.7 (0.2) |  |  | 0.9 (0.2) |  |  | 2.5 (0.6) |  | 0.8 (0.4) |  |  |  | 
10 | [Cl-].[Na+] [NaCl] |  |  |  |  |  |  |  |  |  |  |  |  |  |  |  |  | negligible effect on aggregation
